{
  "source": "paper PMC9898996",
  "about": "(Bioorganic & medicinal chemistry, 2022)",
  "key": {"α-syn": {"target": "α-syn (Homo sapiens, UniProt P37840)", "assay": "ThT assay of α-syn aggregation induced by seeding with 0.5% PFFs", "format": "biochemical", "conditions": "1.25 mg/mL α-syn + 0.5% PFFs, 30D without shaking, drug 172.9 μM"}, "PC12 cells": {"system": "PC12 cells", "assay": "MTT viability of PC12 cells treated with α-syn seeded samples", "format": "cell-based", "conditions": "samples collected at 0D; drug 20 μM, 24 h"}, "rat D2L receptor": {"target": "rat D2L receptor (Rattus norvegicus, UniProt P61169)", "sequence (P61169 whole entry)": "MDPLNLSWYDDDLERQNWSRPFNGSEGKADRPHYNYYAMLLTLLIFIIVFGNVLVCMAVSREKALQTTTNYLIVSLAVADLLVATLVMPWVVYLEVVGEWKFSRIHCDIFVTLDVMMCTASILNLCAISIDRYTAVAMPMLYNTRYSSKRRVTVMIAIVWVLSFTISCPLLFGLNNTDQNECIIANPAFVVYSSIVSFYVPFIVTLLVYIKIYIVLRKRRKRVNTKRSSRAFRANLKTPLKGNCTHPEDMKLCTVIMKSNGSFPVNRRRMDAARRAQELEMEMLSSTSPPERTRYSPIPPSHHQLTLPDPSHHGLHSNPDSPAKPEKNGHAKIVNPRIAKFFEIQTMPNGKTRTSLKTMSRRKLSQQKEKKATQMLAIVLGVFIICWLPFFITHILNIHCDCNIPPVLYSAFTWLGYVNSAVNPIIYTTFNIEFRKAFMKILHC", "format": "binding"}, "human D2 receptor [1]": {"target": "T1, human D2 receptor (Homo sapiens, UniProt P14416)", "T1 sequence (P14416 whole entry)": "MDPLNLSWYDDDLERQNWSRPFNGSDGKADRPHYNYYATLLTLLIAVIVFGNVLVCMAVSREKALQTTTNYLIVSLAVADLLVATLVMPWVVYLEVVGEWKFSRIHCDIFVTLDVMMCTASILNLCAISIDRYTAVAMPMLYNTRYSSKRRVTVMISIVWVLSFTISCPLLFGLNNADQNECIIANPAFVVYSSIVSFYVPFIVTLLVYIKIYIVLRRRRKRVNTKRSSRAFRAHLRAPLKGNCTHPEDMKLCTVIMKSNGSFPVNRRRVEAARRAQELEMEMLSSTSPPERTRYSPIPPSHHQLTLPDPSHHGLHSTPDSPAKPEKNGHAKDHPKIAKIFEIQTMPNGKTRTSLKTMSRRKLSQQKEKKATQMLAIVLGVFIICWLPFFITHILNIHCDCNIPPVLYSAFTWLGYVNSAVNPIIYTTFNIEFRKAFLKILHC"}, "human D2 receptor [2]": {"target": "T1, human D2 receptor", "conditions": "[35S]GTPγS, D2 receptors"}},
  "data": [
    {"smiles": "Br.Br.CCCN(CCc1cc(O)c(CCN(CCC)[C@H]2CCc3c(O)cccc3C2)cc1O)[C@H]1CCc2c(O)cccc2C1", "note": "[Compound D-666, 2,5-Bis(2-(((S)-5-hydroxy-1,2,3,4-tetrahydronaphthalen-2-yl)(propyl)amino)ethyl)benzene-1,4-diol]", "values": [
      {"measurement": "Inhibition of α-syn aggregation (ThT signal)", "setting": "α-syn", "value": "inhibited the aggregation completely"},
      {"measurement": "Toxicity of compound by itself (PC12 viability, MTT)", "setting": "PC12 cells", "value": "do not see such toxicity"}
    ]},
    {"smiles": "CCCN(CC(=O)N1CCN(C(=O)CN(CCC)[C@H]2CCc3c(O)cccc3C2)CC1)[C@H]1CCc2c(O)cccc2C1", "note": "[Compound D-380, (s)-1,1’-(piperazine-1,4-diyl)bis(2-(((s)-5-hydroxy-1,2,3,4-tetrahydronaphthalen-2-yl)(propyl)amino)ethanone)]", "values": [
      {"measurement": "Activity at DA receptors (binding, in words)", "setting": "rat D2L receptor; D2/D3 receptor binding", "value": "little to no activity"},
      {"measurement": "Inhibition of [3H]spiroperidol binding, D2L", "setting": "rat D2L receptor; at 100 μM, cloned rat D2L in HEK-293 cells", "value": "No Inhibition at 100 μM"}
    ]},
    {"smiles": "CCCN(CCC)C1CCc2c(O)cccc2C1", "note": "(single isomer, unassigned; (-)) [(−)-5-OH-DPAT, 5-OH-DPAT]", "values": [
      {"measurement": "Emax", "setting": "human D2 receptor [1]", "value": "80 ± 4", "unit": "%"}
    ]},
    {"smiles": "CCCN(CCc1cc(O)c(CCN(CCC)[C@H]2CCc3nc(N)sc3C2)cc1O)[C@H]1CCc2nc(N)sc2C1", "note": "[Compound D-673, 2,5-bis(2-(((S)-2-amino-4,5,6,7-tetrahydrobenzo[d]thiazol-6-yl)(propyl)amino)-ethyl)benzene-1,4-diol]", "values": [
      {"measurement": "D2 functional potency compared to pramipexole", "setting": "human D2 receptor [2]", "value": "more than 7 fold"},
      {"measurement": "Inhibition of α-syn aggregation (ThT signal)", "setting": "α-syn", "value": "inhibited the aggregation completely"},
      {"measurement": "Toxicity of compound by itself (PC12 viability, MTT)", "setting": "PC12 cells", "value": "shows toxicity"}
    ]},
    {"smiles": "CCCN(CCc1ccc(CCN(CCC)[C@H]2CCc3c(O)cccc3C2)cc1)[C@H]1CCc2c(O)cccc2C1", "note": "[Compound D-382, (6s,6’s)-6,6’-(2,2’-(1,4-phenylene)bis(ethane-2,1-diyl))bis(propylazanediyl)bis(5,6,7,8-tetrahydronaphthalen-1-ol)]", "values": [
      {"measurement": "Increase in affinity for D2 receptors compared to D-381", "setting": "rat D2L receptor; binding, D2 receptors", "value": "greater than threefold increase"}
    ]}
  ]
}
